# Tests used:
# Fuchsia hybrida = test: Effectiveness of indole-3-succinic acid derivatives in root growth, procedure of Example 3; type: in vivo; conditions: 10^−7 M aqueous solution
# Method: (§1) Five new-growth cuttings of two different varieties of Fuchsia hybrida (i.e., Varigated Fuchsia and Swingtime Fuchsia) were placed into the 50 mL solutions contained in orange plastic pill containers that were blackened with black electrician's tape. The solutions were placed in a fiberglass solar prism greenhouse (90% of UV light is filtered out of sunlight) in which the temperatures varied from 55° F. (night) to 100° F. (day). The solutions were topped with deionized water daily to the 50 mL mark to compensate for water […] and evaporation. Readings of the root growth were measured in total mm for the cuttings in a particular solution on days 7, 10, 14, 18, 22, 26, 30, and 34. These were recorded as the number of rootlets/total length (mm). […] Therefore, all data reflect the average mm root growth per survived cutting.
# The process recited in Example 1 was followed to make the derivatives and they were each tested in accordance with the procedure in Example 3 in a 10^−7 M aqueous solution. The derivatives and their effectiveness compared to conventional auxins is reported below.
# Varigated Fuchsia = test: Root growth of Varigated Fuchsia cuttings in hydroponic auxin solution; type: in vivo, Fuchsia hybrida; conditions: for Enhancement Ratio: Varigated Fuchsia (VF), R = (ISAx − H2O)/(IBA − H2O), average root growth per cutting; for root growth activity compared to IBA: versus 10^−7 M IBA
# Method: (§2) This example illustrates the auxin effect of each indole-3-succinic acid enantiomer and indole-3-succinic acid racemate, and compares them to IBA and water. A detailed description of this root growth study follows.
# (§3) Fresh solutions were used in each experiment. Weights of hormone salts were measured to ±0.01 mg on a Mettler H-16 single-pan mechanical balance (reproducibility=±0.03 mg). Using indole-3-succinic acid R and S enantiomers as the 2×NH4^+ salt, 1.40 mg, was dissolved in 95% ethanol (20 mL) and slowly diluted to 500 mL with deionized water to make a stock solution of 1.047×10^−5 molar concentration. Dilutions were then made in the following manner.
# (§4) For the concentration study (S)-indole-3-succinic acid; 2NH4^+ (98% e/e, 1.41 mg), and IBA Na(1.13 mg) were used to make stock solution of 1.055×10^−5 and 1.005×10^−5 molar, respectively. Deionized water was also used as a control.
# as §1
# (§5) This example compares indole-3-succinic acid enantiomers and ISA racemate to IBA and IAA. More specifically, Table 1 illustrates the relative effectiveness (in promoting root growth) of different indole-3-succinic acid solutions compared to 10^−7 M indole-3-butyric acid (IBA) and a 10^−7 M […].
# (§6) This example was conducted in the same manner as in Example 2 above.
# Swingtime Fuchsia = test: Root growth of Swingtime Fuchsia cuttings in hydroponic auxin solution; type: in vivo, Fuchsia hybrida; conditions: for Enhancement Ratio: Swingtime Fuchsia (SF), R = (ISAx − H2O)/(IBA − H2O), average root growth per cutting; for root growth activity compared to IBA: versus 10^−7 M IBA
# Method: as §2, §3, §4, §1, §5, §6
structure (smiles),measurement,setting,value
O=C(O)CC(c1ccccc1)c1c[nH]c2ccccc12 (centres unmarked) [3′-indole-3-phenylpropanoic acid],Effectiveness compared to IAA,Fuchsia hybrida,2× as effective as IAA
"O=C(O)C[C@H](C(=O)O)c1c[nH]c2ccccc12 [(S)-ISA, (S)-indole-3-succinic acid]",Enhancement Ratio,Varigated Fuchsia; 10^−7 M,3.8
same,Enhancement Ratio,Varigated Fuchsia; 10^−8 M,4.6
same,potency compared to the other ISA enantiomer,"Varigated Fuchsia; Varigated Fuchsia, all concentrations of ISA, FIG. 5",more potent
same,Enhancement Ratio,Swingtime Fuchsia; 10^−7 M,5.7
same,Enhancement Ratio,Swingtime Fuchsia; 10^−8 M,4.8
"O=C(O)CC(C(=O)O)c1c[nH]c2ccccc12 (racemic) [Racemic ISA, indole-3-succinic acid]",Enhancement Ratio,Swingtime Fuchsia; 10^−7 M,7.0
same,root growth activity compared to IBA,Swingtime Fuchsia; Swingtime Fuchsia,significantly higher
same,melting point,,196 to 198 °C
O=C(O)CC(C(=O)O)c1c[nH]c2ccc(Br)cc12 (centres unmarked) [5-bromoindole-3-succinic acid],Effectiveness compared to IAA,Fuchsia hybrida,same as IAA
CC(CC(=O)O)c1c[nH]c2ccccc12 (centres unmarked) [3′-indole-3-methylpropanoic acid],Effectiveness compared to IBA,Fuchsia hybrida,same as IBA
"O=C(O)C[C@@H](C(=O)O)c1c[nH]c2ccccc12 [(R)-ISA, (R)-indole-3-succinic acid]",Enhancement Ratio,Varigated Fuchsia; 10^−7 M,0.7
same,Enhancement Ratio,Varigated Fuchsia; 10^−8 M,4.4
same,root growth activity compared to IBA,Varigated Fuchsia; Varigated Fuchsia,nearly the same activity
same,Enhancement Ratio,Swingtime Fuchsia; 10^−7 M,5.6
same,Enhancement Ratio,Swingtime Fuchsia; 10^−8 M,7.1
same,potency compared to the other ISA enantiomer,"Swingtime Fuchsia; Swingtime Fuchsia, 10^−8 M, FIG. 5",more potent
"O=C(O)Cc1c[nH]c2ccccc12 [IAA, indole-3-acetic acid, reference compound]",Enhancement Ratio,Varigated Fuchsia; 10^−7 M,0
same,root growth activity compared to IBA,Varigated Fuchsia; Varigated Fuchsia,substantially lower levels of activity
same,Enhancement Ratio,Swingtime Fuchsia; 10^−7 M,0
same,root growth activity compared to IBA,Swingtime Fuchsia; Swingtime Fuchsia,substantially lower levels of activity
O=C(O)CC(C(=O)O)c1c[nH]c2cccc(Cl)c12 (centres unmarked) [4-chloroindole-3-succinic acid],Effectiveness compared to IAA,Fuchsia hybrida,22× more effective than IAA
O=C(O)CC(C(=O)O)c1c[nH]c2ccc(Cl)cc12 (centres unmarked) [5-chloroindole-3-succinic acid],Effectiveness compared to IAA,Fuchsia hybrida,2× more effective than IAA

# Reference: patent publication US6753297B2, “Use of indole-3-succinic acid as auxin” (priority 2001, dated 2004)
